Test results: ChEMBL document CHEMBL1201862, “PubChem BioAssay data set” (2004)
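Interpolation was linear, between the two tested concentrations surrounding the appropriate level; five concentrations were tested over 48 hours in 96-well plates. Abbreviation: GI50, concentration required for 50% inhibition of growth.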 Activity calls are given as the source filed them. Cut-off read from the data, not from the text of the source: active = GI50 up to about 1.1 µM and inactive = higher.

Key:
Test in all cases: NCI anticancer screen, dose series, 48 h
NCI-H522 = tested on: NCI-H522
OVCAR-4 = tested on: OVCAR-4
KM12 = tested on: KM12
SK-MEL-28 = tested on: SK-MEL-28
SW-620 = tested on: SW-620
UO-31 = tested on: UO-31
A498 = tested on: A498
HOP-62 = tested on: HOP-62
SK-OV-3 = tested on: SK-OV-3
SK-MEL-5 = tested on: SK-MEL-5
NCI-H23 = tested on: NCI-H23
EKVX = tested on: EKVX
HCT-116 = tested on: HCT-116
NCI-H226 = tested on: NCI-H226
MOLT-4 = tested on: MOLT-4
SF-295 = tested on: SF-295
NCI/ADR-RES = tested on: NCI/ADR-RES
HCT-15 = tested on: HCT-15
UACC-257 = tested on: UACC-257
HOP-92 = tested on: HOP-92

Row | Structure (SMILES) | GI50 (NCI-H522) | GI50 (OVCAR-4) | GI50 (KM12) | GI50 (SK-MEL-28) | GI50 (SW-620) | GI50 (UO-31) | GI50 (A498) | GI50 (HOP-62) | GI50 (SK-OV-3) | GI50 (SK-MEL-5) | GI50 (NCI-H23) | GI50 (EKVX) | GI50 (HCT-116) | GI50 (NCI-H226) | GI50 (MOLT-4) | GI50 (SF-295) | GI50 (NCI/ADR-RES) | GI50 (HCT-15) [µM] | GI50 (UACC-257) | GI50 (HOP-92)
1 | COc1cccc(N2C(=O)C3c4[nH]c5ccc(C)cc5c4C4CCC(C(C)(C)C)CC4C3C2=O)c1 (centres undefined) | 1.87 µM (inactive) | 6.27 µM (inactive) | 3.52 µM (inactive) | 4.61 µM (inactive) | 3.88 µM (inactive) | 2.8 µM (inactive) | > 10 µM (inactive) | > 10 µM (inactive) | > 10 µM (inactive) | 7.67 µM (inactive) | 2.24 µM (inactive) | 4.84 µM (inactive) | 2.17 µM (inactive) | 3.01 µM (inactive) | 1.97 µM (inactive) | > 10 µM (inactive) | 3.51 µM (inactive) | 6.35 | – | –
2 | Cc1c2c(cc3c1[nH]c1ccccc13)C(c1ccc(F)cc1)=NCC2 | 1.08 µM (active) | 0.703 µM (active) | 0.869 µM (active) | 1.48 µM (inactive) | 0.665 µM (active) | 1.08 µM (active) | 1.37 µM (inactive) | 2.05 µM (inactive) | 1.37 µM (inactive) | 1.72 µM (inactive) | 1.15 µM (inactive) | 2.07 µM (inactive) | 0.752 µM (active) | 1.43 µM (inactive) | 1 µM (active) | 0.869 µM (active) | 0.774 µM (active) | 0.904 | 1.03 µM (active) | 1.44 µM (inactive)
3 | CCCC[C@H]1[C@@H](OCOc2ccccc2)COC(=O)N1[C@H](C)c1ccccc1 | 10.3 µM (inactive) | 10.3 µM (inactive) | 12.9 µM (inactive) | 21.6 µM (inactive) | 32.1 µM (inactive) | 11.8 µM (inactive) | 12.9 µM (inactive) | 13.8 µM (inactive) | 22.4 µM (inactive) | 4.03 µM (inactive) | 18.2 µM (inactive) | 25.4 µM (inactive) | 7.62 µM (inactive) | > 100 µM (inactive) | 4.54 µM (inactive) | 11.9 µM (inactive) | > 34.3 µM (inactive) | 15.9 | 9.66 µM (inactive) | 18.1 µM (inactive)
4 | Cc1ccccc1OCC(COC(=O)Nc1ccccc1)OC(=O)Nc1ccccc1 (centres undefined) | 19.6 µM (inactive) | 13.1 µM (inactive) | 26.3 µM (inactive) | > 100 µM (inactive) | 52.8 µM (inactive) | 34.6 µM (inactive) | 61.2 µM (inactive) | 31.9 µM (inactive) | 59.7 µM (inactive) | > 100 µM (inactive) | 54 µM (inactive) | > 100 µM (inactive) | 15.8 µM (inactive) | 25.8 µM (inactive) | 3.49 µM (inactive) | 51.3 µM (inactive) | – | > 100 | > 100 µM (inactive) | 10.9 µM (inactive)
5 | Cc1cccc(N2C(=O)C3c4[nH]c5ccc(C)cc5c4C4CCC(C(C)(C)C)CC4C3C2=O)c1 (centres undefined) | 19.9 µM (inactive) | 23.1 µM (inactive) | 15.8 µM (inactive) | 42.6 µM (inactive) | 21 µM (inactive) | 43.4 µM (inactive) | – | 15.8 µM (inactive) | – | 32.5 µM (inactive) | 26.1 µM (inactive) | 10.4 µM (inactive) | – | 17.1 µM (inactive) | 8.97 µM (inactive) | 19.4 µM (inactive) | 17.6 µM (inactive) | 53.7 | 46.3 µM (inactive) | 15.7 µM (inactive)
